Reference: patent US9187497B2, “Substituted pyrido[3,2-e]pyrrolo[1,2-a]pyrazines as inhibitors of poly(ADP-ribose)polymerase (PARP)” (Takeda Phamaceutical Company Limited, priority 2009, dated 2015)

Tested on: Jurkat cell line
Experiment: PARP cellular chemopotentiation assay (MTS cell viability with and without TMZ)
Type: cell-based
Details: ratio of EC50 for inhibition of cell viability without and with 100 μM TMZ; Jurkat cells, 96 hours of treatment
Method: Potentiation Factor (PF50) Determination from PARP Cellular Chemopotentiation Assay
Jurkat cell line was maintained according to the supplier (American Type Culture Collection (Rockville, Md.)). Cells were seeded in 96-well tissue culture microplates at 10,000 cells per well and cultured for 24 hours prior to addition of compounds, TMZ (Temozolomide) or DMSO (dimethylsulfoxide) vehicle. After 96 hours of treatment, the conversion of MTS ([3-(4,5-dimethylthiazol-2-yl)-5-(3-carboxymethoxyphenyl)-2-(4-sulfophenyl)-2H-tetrazolium, inner salt], Promega, Madison, Wis.) by metabolically active cells was determined through measuring the OD490 nm with a Spectramax microplate reader (Molecular Devices, San Diego, Calif.). To generate concentration-response curves, cells were treated in duplicate with a range of serial compound dilutions (final DMSO concentration was 0.5%) in the absence or presence of 100 μM TMZ chemoreagent. The percentage of viable cells per well was calculated by correction for background and normalizing against DMSO-treated cells. EC50 values for inhibition of cell viability were calculated using XLfit4 MicroSoft Excel curve-fitting software. Chemopotentiation factor PF50 was calculated as the ratio of EC50 values of cells co-treated without and with TMZ, respectively.

| SMILES | PF50 |
| --- | --- |
| CCOC(=O)c1ccc(N2CCN(Cc3cnc4c(c3)NC(=O)[C@@H]3CCCN43)CC2)nc1 [Compound 6A, (S)-ethyl 6-(4-((6-oxo-5,6,6a,7,8,9-hexahydropyrido[3,2-e]pyrrolo[1,2-a]pyrazin-3-yl)methyl)piperazin-1-yl)nicotinate] | ≧0 |
| CCNC(=O)c1ccc(N2CCN(Cc3cnc4c(c3)NC(=O)[C@@H]3CCCN43)CC2)nc1 [Compound 7, (S)—N-ethyl-6-(4-((6-oxo-5,6,6a,7,8,9-hexahydropyrido[3,2-e]pyrrolo[1,2-a]pyrazin-3-yl)methyl)piperazin-1-yl)nicotinamide] | >10 |
| O=C(NC1CC1)c1ccc(N2CCN(Cc3cnc4c(c3)NC(=O)[C@@H]3CCCN43)CC2)nc1 [Compound 8, (S)—N-cyclopropyl-6-(4-((6-oxo-5,6,6a,7,8,9-hexahydropyrido[3,2-e]pyrrolo[1,2-a]pyrazin-3-yl)methyl)piperazin-1-yl)nicotinamide] | >10 |
| CC(C)NC(=O)c1ccc(N2CCN(Cc3cnc4c(c3)NC(=O)[C@@H]3CCCN43)CC2)nc1 [Compound 9, (S)—N-isopropyl-6-(4-((6-oxo-5,6,6a,7,8,9-hexahydropyrido[3,2-e]pyrrolo[1,2-a]pyrazin-3-yl)methyl)piperazin-1-yl)nicotinamide] | ≧0 |
| O=C1Nc2cc(CN3CCN(c4ccc(F)cc4F)CC3)cnc2N2CCC[C@@H]12 [Compound 15, (S)-3-((4-(2,4-difluorophenyl)piperazin-1-yl)methyl)-6a,7,8,9-tetrahydropyrido[3,2-e]pyrrolo[1,2-a]pyrazin-6(5H)-one] | >500 |
| N#Cc1ccc(N2CCN(Cc3cnc4c(c3)NC(=O)[C@@H]3CCCN43)CC2)c(F)c1F [Compound 18, (S)-2,3-difluoro-4-(4-((6-oxo-5,6,6a,7,8,9-hexahydropyrido[3,2-e]pyrrolo[1,2-a]pyrazin-3-yl)methyl)piperazin-1-yl)benzonitrile] | >10 |
| N#Cc1c(F)cc(N2CCN(Cc3cnc4c(c3)NC(=O)[C@@H]3CCCN43)CC2)cc1F [Compound 19, (S)-2,6-difluoro-4-(4-((6-oxo-5,6,6a,7,8,9-hexahydropyrido[3,2-e]pyrrolo[1,2-a]pyrazin-3-yl)methyl)piperazin-1-yl)benzonitrile] | ≧0 |
| N#Cc1cc(F)c(N2CCN(Cc3cnc4c(c3)NC(=O)[C@@H]3CCCN43)CC2)c(F)c1 [Compound 20, (S)-3,5-difluoro-4-(4-((6-oxo-5,6,6a,7,8,9-hexahydropyrido[3,2-e]pyrrolo[1,2-a]pyrazin-3-yl)methyl)piperazin-1-yl)benzonitrile] | ≧0 |
| N#Cc1ncc(N2CCN(Cc3cnc4c(c3)NC(=O)[C@@H]3CCCN43)CC2)cc1F [Compound 22, (S)-3-fluoro-5-(4-((6-oxo-5,6,6a,7,8,9-hexahydropyrido[3,2-e]pyrrolo[1,2-a]pyrazin-3-yl)methyl)piperazin-1-yl)picolinonitrile] | >10 |
| O=C1Nc2cc(CN3CCN(c4ccccc4)CC3)cnc2N2CCC[C@@H]12 [Compound 23, (S)-3-((4-phenylpiperazin-1-yl)methyl)-6a,7,8,9-tetrahydropyrido[3,2-e]pyrrolo[1,2-a]pyrazin-6(5H)-one] | ≧0 |
| CC(=O)c1ccc(N2CCN(Cc3cnc4c(c3)NC(=O)[C@@H]3CCCN43)CC2)cc1 [Compound 25, (S)-3-((4-(4-acetylphenyl)piperazin-1-yl)methyl)-6a,7,8,9-tetrahydropyrido[3,2-e]pyrrolo[1,2-a]pyrazin-6(5H)-one] | ≧0 |
| O=C1Nc2cc(CN3CCN(c4ccccn4)CC3)cnc2N2CCC[C@@H]12 [Compound 26, (S)-3-((4-(pyridin-2-yl)piperazin-1-yl)methyl)-6a,7,8,9-tetrahydropyrido[3,2-e]pyrrolo[1,2-a]pyrazin-6(5H)-one] | >10 |
| COc1ccc(N2CCN(Cc3cnc4c(c3)NC(=O)[C@@H]3CCCN43)CC2)cc1 [Compound 31, (S)-3-((4-(4-methoxyphenyl)piperazin-1-yl)methyl)-6a,7,8,9-tetrahydropyrido[3,2-e]pyrrolo[1,2-a]pyrazin-6(5H)-one] | ≧0 |
| Cc1ccc(N2CCN(Cc3cnc4c(c3)NC(=O)[C@@H]3CCCN43)CC2)cc1 [Compound 32, (S)-3-((4-p-tolylpiperazin-1-yl)methyl)-6a,7,8,9-tetrahydropyrido[3,2-e]pyrrolo[1,2-a]pyrazin-6(5H)-one] | ≧0 |
| O=C1Nc2cc(CN3CCN(c4cccc(O)c4)CC3)cnc2N2CCC[C@@H]12 [Compound 34, (S)-3-((4-(3-hydroxyphenyl)piperazin-1-yl)methyl)-6a,7,8,9-tetrahydropyrido[3,2-e]pyrrolo[1,2-a]pyrazin-6(5H)-one] | ≧0 |
| O=C1Nc2cc(CN3CCN(c4ccc(O)cc4)CC3)cnc2N2CCC[C@@H]12 [Compound 35, (S)-3-((4-(4-hydroxyphenyl)piperazin-1-yl)methyl)-6a,7,8,9-tetrahydropyrido[3,2-e]pyrrolo[1,2-a]pyrazin-6(5H)-one] | ≧0 |
| O=C1Nc2cc(CN3CCN(c4ccc(C(F)(F)F)cn4)CC3)cnc2N2CCC[C@@H]12 [Compound 36, (S)-3-((4-(5-(trifluoromethyl)pyridin-2-yl)piperazin-1-yl)methyl)-6a,7,8,9-tetrahydropyrido[3,2-e]pyrrolo[1,2-a]pyrazin-6(5H)-one] | ≧0 |
| O=C1Nc2cc(CN3CCN(c4cccc(F)c4)CC3)cnc2N2CCC[C@@H]12 [Compound 38, (S)-3-((4-(3-fluorophenyl)piperazin-1-yl)methyl)-6a,7,8,9-tetrahydropyrido[3,2-e]pyrrolo[1,2-a]pyrazin-6(5H)-one] | ≧0 |
| O=C1Nc2cc(CN3CCN(c4nc5ccccc5[nH]4)CC3)cnc2N2CCC[C@@H]12 [Compound 39, (S)-3-((4-(1H-benzo[d]imidazol-2-yl)piperazin-1-yl)methyl)-6a,7,8,9-tetrahydropyrido[3,2-e]pyrrolo[1,2-a]pyrazin-6(5H)-one] | ≧0 |
| O=C1Nc2cc(CN3CCN(c4ccc(I)cc4)CC3)cnc2N2CCC[C@@H]12 [Compound 40, (S)-3-((4-(4-iodophenyl)piperazin-1-yl)methyl)-6a,7,8,9-tetrahydropyrido[3,2-e]pyrrolo[1,2-a]pyrazin-6(5H)-one] | >10 |
| O=C1Nc2cc(CN3CCN(c4nc5ccccc5o4)CC3)cnc2N2CCC[C@@H]12 [Compound 41, (S)-3-((4-(benzo[d]oxazol-2-yl)piperazin-1-yl)methyl)-6a,7,8,9-tetrahydropyrido[3,2-e]pyrrolo[1,2-a]pyrazin-6(5H)-one] | ≧0 |
| O=C1Nc2cc(CN3CCN(c4cc(F)cc(F)c4)CC3)cnc2N2CCC[C@@H]12 [Compound 46, (S)-3-((4-(3,5-difluorophenyl)piperazin-1-yl)methyl)-6a,7,8,9-tetrahydropyrido[3,2-e]pyrrolo[1,2-a]pyrazin-6(5H)-one] | ≧0 |
| O=C1Nc2cc(CN3CCN(c4ccc(C(F)(F)F)cc4)CC3)cnc2N2CCC[C@@H]12 [Compound 48, (S)-3-((4-(4-(trifluoromethyl)phenyl)piperazin-1-yl)methyl)-6a,7,8,9-tetrahydropyrido[3,2-e]pyrrolo[1,2-a]pyrazin-6(5H)-one] | ≧0 |
| O=C1Nc2cc(CN3CC=C(c4ccc(Cl)cc4)CC3)cnc2N2CCC[C@H]12 [Compound 49, (R)-3-((4-(4-chlorophenyl)-5,6-dihydropyridin-1(2H)-yl)methyl)-6a,7,8,9-tetrahydropyrido[3,2-e]pyrrolo[1,2-a]pyrazin-6(5H)-one] | ≧0 |
| O=C1Nc2cc(CN3CCN(c4ccc(Cl)cc4)CC3)cnc2N2CCC[C@H]12 [Compound 50, (R)-3-((4-(4-chlorophenyl)piperazin-1-yl)methyl)-6a,7,8,9-tetrahydropyrido[3,2-e]pyrrolo[1,2-a]pyrazin-6(5H)-one] | ≧0 |
| O=C1Nc2cc(CN3CCC(c4ccc(Cl)cc4)CC3)cnc2N2CCC[C@H]12 [Compound 51, (R)-3-((4-(4-chlorophenyl)piperidin-1-yl)methyl)-6a,7,8,9-tetrahydropyrido[3,2-e]pyrrolo[1,2-a]pyrazin-6(5H)-one] | ≧0 |
| CC(C)NC(=O)c1ccc(N2CCN(Cc3cnc4c(c3)NC(=O)[C@@H]3CCCCN43)CC2)nc1 [Compound 76, (S)—N-isopropyl-6-(4-((6-oxo-6,6a,7,8,9,10-hexahydro-5H-dipyrido[1,2-a:3′,2′-e]pyrazin-3-yl)methyl)piperazin-1-yl)nicotinamide] | ≧0 |
| CCNC(=O)c1ccc(N2CCN(Cc3cnc4c(c3)NC(=O)[C@@H]3CCCCN43)CC2)nc1 [Compound 78, (S)—N-ethyl-6-(4-((6-oxo-6,6a,7,8,9,10-hexahydro-5H-dipyrido[1,2-a:3′,2′-e]pyrazin-3-yl)methyl)piperazin-1-yl)nicotinamide] | >10 |
| O=C(NC1CC1)c1ccc(N2CCN(Cc3cnc4c(c3)NC(=O)[C@@H]3CCCCN43)CC2)nc1 [Compound 79, (S)—N-cyclopropyl-6-(4-((6-oxo-6,6a,7,8,9,10-hexahydro-5H-dipyrido[1,2-a:3′,2′-e]pyrazin-3-yl)methyl)piperazin-1-yl)nicotinamide] | >10 |
| N#Cc1ccc(N2CCN(Cc3cnc4c(c3)NC(=O)[C@@H]3CSCCN43)CC2)nc1 [Compound 89, (R)-6-(4-((6-oxo-5,6,6a,7,9,10-hexahydropyrido[3,2-e][1,4]thiazino[4,3-a]pyrazin-3-yl)methyl)piperazin-1-yl)nicotinonitrile] | >10 |
